The target in one experiment is Carbonic anhydrase 2 (Bos taurus, UniProt P00921). As to the kind of experiment: Inhibition of bovine erythrocyte carbonic anhydrase 2 using 4-nitrophenyl acetate substrate by photometric assay.
Experiment [1] in a line: Cytotoxicity against mouse NIH/3T3 cells after 96 hrs by SRB assay. The experiment is classed as cell-based. Conditions: NIH3T3, 96 h. For orientation: The SRB assay estimates cell density from bound dye.

Each structure is given as a SMILES string. Some results are limits rather than exact numbers.

Sequence of Carbonic anhydrase 2 (P00921 whole entry): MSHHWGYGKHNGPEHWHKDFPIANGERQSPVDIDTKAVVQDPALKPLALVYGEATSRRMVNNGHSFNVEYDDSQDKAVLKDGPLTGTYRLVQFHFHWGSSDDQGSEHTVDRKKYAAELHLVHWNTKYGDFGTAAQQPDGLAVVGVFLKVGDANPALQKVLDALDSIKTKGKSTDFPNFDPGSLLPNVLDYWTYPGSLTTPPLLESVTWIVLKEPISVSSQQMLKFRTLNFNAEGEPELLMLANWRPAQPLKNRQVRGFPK

Turning to `COC(=O)[C@@]1(C)CC[C@]2(C)CC[C@]3(C)C(=CC(=O)[C@@H]4[C@@]5(C)CC[C@H](O)C(C)(C)[C@@H]5CC[C@]43C)[C@@H]2C1`, the Ki (commonly a measure of affinity in units of concentration, obtained from inhibition or displacement) at Carbonic anhydrase 2 is > 10 µM.

For `COC(=O)[C@@]1(C)CC[C@]2(C)CC[C@]3(C)C(=CC[C@@H]4[C@@]5(C)CC[C@H](O)C(C)(C)[C@@H]5CC[C@]43C)[C@@H]2C1`, the Ki on Carbonic anhydrase 2 was > 10 µM.

Consider `COC(=O)[C@]12CCC(C)(C)C[C@H]1C1=CC(=O)[C@@H]3[C@@]4(C)CC[C@H](O)C(C)(C)[C@@H]4CC[C@@]3(C)[C@]1(C)CC2`, for which the Ki on Carbonic anhydrase 2 is > 50 µM.

With `COC(=O)[C@]12CC[C@@H](C(C)=O)[C@@H]1[C@H]1CC[C@@H]3[C@@]4(C)CC[C@H](O)C(C)(C)[C@@H]4CC[C@@]3(C)[C@]1(C)CC2`, the Ki on Carbonic anhydrase 2 was > 5 µM.

`COC(=O)[C@]12CC[C@@H](C)[C@H](C)[C@H]1C1=CC(=O)[C@@H]3[C@@]4(C)CC[C@H](O)C(C)(C)[C@@H]4CC[C@@]3(C)[C@]1(C)CC2`: at Carbonic anhydrase 2, the Ki is > 50 µM.

Regarding `COC(=O)[C@]12CCC(C)(C)C[C@H]1C1=CC[C@@H]3[C@@]4(C)CC[C@H](OS(N)(=O)=O)C(C)(C)[C@@H]4CC[C@@]3(C)[C@]1(C)CC2`, in experiment [1], half-maximal inhibition (IC50) required 12.8 µM. Affinity at Carbonic anhydrase 2 was put at a Ki of 0.308 µM.

On to `COC(=O)[C@]12CC[C@@H](C)[C@H](C)[C@H]1C1=CC[C@@H]3[C@@]4(C)CC[C@H](OS(N)(=O)=O)C(C)(C)[C@@H]4CC[C@@]3(C)[C@]1(C)CC2`, for which the midpoint of inhibition in experiment [1], the IC50, lay at 22.8 µM. The compound also gave a Ki on Carbonic anhydrase 2 of 1.11 µM.

On to `C=C(C)[C@@H]1CC[C@]2(C(=O)OC)CC[C@]3(C)[C@H](CC[C@@H]4[C@@]5(C)CC[C@H](OS(N)(=O)=O)C(C)(C)[C@@H]5CC[C@]43C)[C@@H]12`, for which, in experiment [1], inhibition was half-maximal at 9.8 µM (IC50). The compound further yielded a Ki at Carbonic anhydrase 2 of 2.16 µM.

Turning to `COC(=O)[C@@]1(C)CC[C@]2(C)CC[C@]3(C)C(=CC(=O)[C@@H]4[C@@]5(C)CC[C@H](OS(N)(=O)=O)C(C)(C)[C@@H]5CC[C@]43C)[C@@H]2C1`, the IC50 (as a rule, the concentration at which inhibition is half-maximal) in experiment [1] is > 30 µM. At Carbonic anhydrase 2, this compound displayed an inhibition constant (Ki) of 1.51 µM.

On to `COC(=O)[C@@]1(C)CC[C@]2(C)CC[C@]3(C)C(=CC[C@@H]4[C@@]5(C)CC[C@H](OS(N)(=O)=O)C(C)(C)[C@@H]5CC[C@]43C)[C@@H]2C1`, for which the half-inhibitory concentration (IC50) in experiment [1] was > 30 µM. Further, the Ki on Carbonic anhydrase 2 is > 4 µM.

Consider `COC(=O)[C@]12CC[C@@H](C(C)=O)[C@@H]1[C@H]1CC[C@@H]3[C@@]4(C)CC[C@H](OS(N)(=O)=O)C(C)(C)[C@@H]4CC[C@@]3(C)[C@]1(C)CC2`, for which the IC50 in experiment [1] was > 30 µM. Besides, the inhibition constant Ki on Carbonic anhydrase 2 was 1.74 µM.

For the compound `COC(=O)[C@]12CCC(C)(C)C[C@H]1C1=CC[C@@H]3[C@@]4(C)C[C@@H](OS(N)(=O)=O)[C@H](O)C(C)(C)[C@@H]4CC[C@@]3(C)[C@]1(C)CC2`, the IC50 in experiment [1] is 12.6 µM. At Carbonic anhydrase 2, the inhibition constant Ki is > 20 µM.

As for `COC(=O)[C@]12CCC(C)(C)C[C@H]1C1=CC[C@@H]3[C@@]4(C)C[C@@H](O)[C@H](OS(N)(=O)=O)C(C)(C)[C@@H]4CC[C@@]3(C)[C@]1(C)CC2`, the concentration for half-maximal inhibition (IC50) in experiment [1] was 2.2 µM. At Carbonic anhydrase 2, this compound registered an inhibition constant (Ki) of 1.41 µM.

Take `COC(=O)[C@]12CCC(C)(C)C[C@H]1C1=CC(=O)[C@@H]3[C@@]4(C)CC[C@H](OS(N)(=O)=O)C(C)(C)[C@@H]4CC[C@@]3(C)[C@]1(C)CC2`: half-maximal inhibition in experiment [1] (IC50) required 25.9 µM. Also, the affinity on Carbonic anhydrase 2, expressed as Ki, was 1.49 µM.

`COC(=O)[C@]12CC[C@@H](C)[C@H](C)[C@H]1C1=CC(=O)[C@@H]3[C@@]4(C)CC[C@H](OS(N)(=O)=O)C(C)(C)[C@@H]4CC[C@@]3(C)[C@]1(C)CC2` came in with a concentration for half-maximal inhibition (IC50) in experiment [1] of 25.9 µM. Further, the inhibition constant Ki on Carbonic anhydrase 2 was > 15 µM.

On to `COC(=O)[C@]12CCC(C)(C)C[C@H]1C1=CC[C@@H]3[C@@]4(C)C[C@@H](O)[C@H](O)C(C)(C)[C@@H]4CC[C@@]3(C)[C@]1(C)CC2` [MASLINIC ACID METHYL ESTER], for which the Ki on Carbonic anhydrase 2 is > 25 µM.

Consider `C=C(C)[C@@H]1CC[C@]2(C(=O)OC)CC[C@]3(C)[C@H](CC[C@@H]4[C@@]5(C)CC[C@H](O)C(C)(C)[C@@H]5CC[C@]43C)[C@@H]12` [METHYL BETULINATE], for which, at Carbonic anhydrase 2, the inhibition constant Ki is > 50 µM.

`COC(=O)[C@]12CCC(C)(C)C[C@H]1C1=CC[C@@H]3[C@@]4(C)CC[C@H](O)C(C)(C)[C@@H]4CC[C@@]3(C)[C@]1(C)CC2` [METHYL OLEANOLATE]: the Ki on Carbonic anhydrase 2 is > 10 µM.

Take `COC(=O)[C@]12CC[C@@H](C)[C@H](C)[C@H]1C1=CC[C@@H]3[C@@]4(C)CC[C@H](O)C(C)(C)[C@@H]4CC[C@@]3(C)[C@]1(C)CC2` [METHYL URSOLATE]: the inhibition constant (Ki) on Carbonic anhydrase 2 is > 10 µM.

(Values after ChEMBL document CHEMBL3352703, “Sulfamates of methyl triterpenoates are effective and competitive inhibitors of carbonic anhydrase II” (Eur J Med Chem, 2014).)
